Experimental data taken from PMC5112578, “Zika antiviral chemotherapy: identification of drugs and promising starting points for drug discovery from an FDA-approved library” (F1000Research, 2016).
Structures can show the parent of a compound that is named as a salt. Where two headings read alike, the source gives them in different places. Numbered stars: 1 amine (or outer) side, 2 acyl side, 3 side chain; on linkers, the order of the positions; unused ones are H or OH. Bridge positions count the residues as written; N and C are the ends. Square brackets hold non-standard residues; d marks the D form. Peptide text beside a SMILES is read from it. I, II: the chains in the order shown. Actinocin(9to1) = Cc1c2oc3c(C)ccc(C(=O)[*:1])c3nc-2c(C(=O)[*:2])c(N)c1=O; NMeV = CN[C@H](C(=O)O)C(C)C; Sar = CNCC(=O)O

Columns and labels:
Zika virus (ZIKV) [1] = assay: ZIKV high content screening assay (infection ratio by immunofluorescence in Huh7); details: for Max. Activity (% of infection inhibition) / S.I. (CC 50/EC 50): Table 2; for Max. Activity (% of infection inhibition): dose-response; for Max. Activity (% of infection inhibition) / activity: Huh7, ZIKV, 72 h; for activity: in our assay, library screened at 20 µM; for S.I. (CC 50/EC 50): SI = CC50/EC50, Huh7; for SI: SI = CC50/EC50
Zika virus (ZIKV) [2] = system: Zika virus (ZIKV)
[3] = Table 2; no reference given; cited from earlier work
Huh7 cells = assay: Cell toxicity / cell ratio in the ZIKV high content assay; details: for toxicity: in our assay, library screened at 20 µM, Huh7, 72 h; for CC50: Table S2, 50% reduction in cell viability vs infected IFNα2A treated cells, 72 h
[4] = in humans; no reference given; cited from earlier work
[5] = Table S2, 9 point DRC from 50 µM, Huh7, ZIKV MOI 0.5, 72 h

SMILES	CC50 (Huh7 cells) [µM]	EC50 (Zika virus (ZIKV) [1]; [5]) [µM]	SI (Zika virus (ZIKV) [1]; Table S2)	also measured
O=c1[nH]cc(F)c(=O)[nH]1 [5-Fluorouracil]	–	–	–	Max. Activity (% of infection inhibition) (Zika virus (ZIKV) [1]): 57%; EC50 (Zika virus (ZIKV) [1]; Zika virus, Huh-7, 72 h): 14.3 ± 8.6 µM; S.I. (CC 50/EC 50) (Zika virus (ZIKV) [2]): > 2.5; Water Solubility [3]: 12.5 mg/mL
O=c1cnn([C@@H]2O[C@H](CO)[C@@H](O)[C@H]2O)c(=O)[nH]1 [6-Azauridine]	–	–	–	Max. Activity (% of infection inhibition) (Zika virus (ZIKV) [1]): 88.3%; EC50 (Zika virus (ZIKV) [1]; Zika virus, Huh-7, 72 h): 2.3 ± 0.1 µM; Water Solubility (mg/mL) [3]: Very high
Cn1cnc([N+](=O)[O-])c1Sc1ncnc2nc[nH]c12 [Azathioprine]	–	–	–	toxicity (Huh7 cells): higher than 50%
CC(C)/N=c1\cc2n(-c3ccc(Cl)cc3)c3ccccc3nc-2cc1Nc1ccc(Cl)cc1 [Clofazimine]	–	–	–	activity (Zika virus (ZIKV) [1]): lower than 50%
Cc1c2oc3c(C)ccc(C(=O)N[C@@H]4C(=O)N[C@H](C(C)C)C(=O)N5CCC[C@H]5C(=O)N(C)CC(=O)N(C)[C@@H](C(C)C)C(=O)O[C@@H]4C)c3nc-2c(C(=O)N[C@@H]2C(=O)N[C@H](C(C)C)C(=O)N3CCC[C@H]3C(=O)N(C)CC(=O)N(C)[C@@H](C(C)C)C(=O)O[C@@H]2C)c(N)c1=O [Dactinomycin] (I: T[dV]P[Sar][NMeV] / II: T[dV]P[Sar][NMeV]; ester I:1-I:C, II:1-II:C; linker I:N-II:N via Actinocin(9to1))	–	–	–	toxicity (Huh7 cells): higher than 50%
C[C@H]1O[C@@H](O[C@H]2[C@@H](O)C[C@H](O[C@H]3[C@@H](O)C[C@H](O[C@H]4CC[C@@]5(C)[C@H](CC[C@@H]6[C@@H]5C[C@@H](O)[C@]5(C)[C@@H](C7=CC(=O)OC7)CC[C@]65O)C4)O[C@@H]3C)O[C@@H]2C)C[C@H](O)[C@@H]1O [Digoxin]	–	–	–	toxicity (Huh7 cells): higher than 50%
CO[C@@H]1[C@@H](O[C@@H]2O[C@H](C)[C@@H](O[C@H]3C[C@@](C)(O)[C@@H](OC(=O)CC(C)C)[C@H](C)O3)[C@H](N(C)C)[C@H]2O)[C@@H](CC=O)C[C@@H](C)[C@@H](O)/C=C/C=C/C[C@@H](C)OC(=O)C[C@H]1O [Kitasamycin]	–	–	–	S.I. (CC 50/EC 50) (Zika virus (ZIKV) [1]): > 1.2; Max. Activity (% of infection inhibition) (Zika virus (ZIKV) [1]): 69.1%; EC50 (Zika virus (ZIKV) [1]; Zika virus, Huh-7, 72 h): 41.7 ± 10.1 µM; Water Solubility [3]: 0.05 mg/mL
CC[C@H](C)C(=O)O[C@H]1C[C@@H](C)C=C2C=C[C@H](C)[C@H](CC[C@@H]3C[C@@H](O)CC(=O)O3)[C@H]21 [Lovastatin]	–	–	–	S.I. (CC 50/EC 50) (Zika virus (ZIKV) [1]): > 2.5; Max. Activity (% of infection inhibition) (Zika virus (ZIKV) [1]): 60.7%; EC50 (Zika virus (ZIKV) [1]; Zika virus, Huh-7, 72 h): 20.7 ± 8.6 µM
COC(=O)Nc1nc2ccc(C(=O)c3ccccc3)cc2[nH]1 [Mebendazole]	–	–	–	toxicity (Huh7 cells): higher than 50%
OC(c1cc(C(F)(F)F)nc2c(C(F)(F)F)cccc12)C1CCCCN1 (centres unmarked) [Mefloquine]	–	–	–	toxicity (Huh7 cells): higher than 50%
S=c1[nH]cnc2nc[nH]c12 [Mercaptopurine]	–	–	–	activity (Zika virus (ZIKV) [1]): lower than 50%
COc1c2occc2cc2ccc(=O)oc12 [Methoxsalen]	–	–	–	activity (Zika virus (ZIKV) [1]): lower than 50%
O=C1c2cccc3c2[C@H](CCC3)CN1[C@@H]1CN2CCC1CC2 [Palonosetron]	–	–	–	Max. Activity (% of infection inhibition) (Zika virus (ZIKV) [1]): 97.7%; EC50 (Zika virus (ZIKV) [1]; Zika virus, Huh-7, 72 h): 16.3 ± 7.7 µM; bioavailability [4]: 97%; S.I. (CC 50/EC 50) (Zika virus (ZIKV) [2]): > 3.06; Water Solubility (mg/mL) [3]: Very high
Clc1ccc2c(c1)CCc1cccnc1C2=C1CCNCC1 [SAM001246545]	20.7 ± 4.1	–	–	–
Cc1ccc(NC(=O)c2ccc(CN3CCN(C)CC3)cc2)cc1Nc1nccc(-c2cccnc2)n1 [SAM001246622]	–	13.3 ± 5.8	–	–
COCCCC/C(=N\OCCN)c1ccc(C(F)(F)F)cc1.O=C(O)/C=C\C(=O)O [SAM001246977]	24.3 ± 3.1	17 ± 3.6	1.43	–
CN1CCN(CCCN2c3ccccc3Sc3ccc(Cl)cc32)CC1.O=C(O)/C=C\C(=O)O.O=C(O)/C=C\C(=O)O [SAM001247054]	9 ± 4.4	10.3 ± 3.1	0.87	–
Clc1ccccc1C(c1ccccc1)(c1ccccc1)n1ccnc1 [SAM001247056]	8.7 ± 1.2	14.3 ± 3.5	0.6	–
CC(C)c1ccc2c(c1)c(SC(C)(C)C)c(CC(C)(C)C(=O)O)n2Cc1ccc(Cl)cc1 [SAM001247075]	33.7 ± 10.8	12 ± 1.7	2.8	–
Oc1cc2c(cc1O)[C@H]1c3ccccc3CN[C@@H]1CC2 [SAM001247083]	16.5	21.5 ± 0.7	–	–
N=C(NCc1ccc(Cl)cc1)SCCCc1c[nH]cn1 [SAM001247107]	19.3 ± 9.7	14	1.38	–
CC(CN1c2ccccc2Sc2ccccc21)N(C)C.Cl (centres unmarked) [SAM002264636]	28.3 ± 17.6	19.7 ± 4.5	1.44	–
CN1C2CCC1CC(OC(c1ccccc1)c1ccccc1)C2.CS(=O)(=O)O (centres unmarked) [SAM002548938]	31.3 ± 15.3	21.3 ± 10	1.47	–
Clc1ccc2c(c1)C(N1CCNCC1)=Nc1ccccc1O2 [SAM002564189]	11.7 ± 11	19.3 ± 5.5	0.6	–
CN[C@H]1CC[C@@H](c2ccc(Cl)c(Cl)c2)c2ccccc21 [Sertraline-HCl]	–	–	–	activity (Zika virus (ZIKV) [1]): lower than 50%
